{"source": "patent US5639734A", "about": "“Disaccharide inflammation inhibitors and uses thereof” (priority 1994, dated 1997)", "key": {"[1]": {"tested_on": "pgsA-745 cells (xylosyltransferase deficient Chinese hamster ovary cells)", "test": "Priming of [35S]glycosaminoglycan chains in xylosyltransferase-deficient CHO mutant pgsA-745 cells", "format": "cell-based", "settings": "FIG. 3; 5 hours at 37° C.; up to 500 μM", "method": "Various compounds at the indicated concentrations were provided to confluent Chinese hamster ovary cells in a 96 well plate. Glycosaminoglycan synthesis was measured by autoradiography of [^35 S]-glycosaminoglycan collected on a postively charged nylon membrane. 1: Xylβ-0-2-naphthol; 2: Xylβ1→6Gal-0-2-naphthol; 3: Xylβ1→6Gal(Me)-0-2-naphthol; 4: Xylβ1→6Gal(Me)2 -0-2-naphthol; 5: Xylβ1→6Gal(Me)3 -0-2-naphthol; 6: Xyl(Ac)3 β-0-2-naphthol; 7:Xyl(Ac)3 β1→6Gal(Ac)3 -0-2-naphthol.\nPriming of glycosaminoglycan chains was measured in pgsA-745 cells deficient in xylosyltransfersase. The cells were grown to confluence in 96-well microtiter plates (Falcon). Fresh medium (0.2 ml) containing 50 μCi/ml of H2^35 SO4 (25-40 Ci/mg) and the test compounds were added to the wells. The top row of wells contained […] of glycoside and each subsequent row contained a serial dilution (1:3^n, v/v). Cells were incubated for 5 hours at 37° C. and solubilized by adding 20 μl of 0.5M NaOH. The individual wells were adjusted to 0.2% (w/v) Zwittergent 3-12, 25 μg/ml chondroitin sulfate, 0.2M acetic acid and 10 mM Na2 SO4. The samples were transferred to a GeneScreen Plus membrane (Dupont-NEN) placed on top of a piece of 1Chr paper on a vacuum Minifold (Schleicher & Schuell). A wash solution of 0.2% (w/v) Zwittergent 3-12, 0.2M acetic acid and 10 mM Na2 SO4 (0.5 ml) was passed through each well. The membranes were removed from the Minifold, soaked for 5 minutes in 20 ml of wash solution, air-dried and exposed to RX X-ray film for 10-18 hours.\nTherefore, uptake of the disaccharide was measured indirectly by the determining the incorporation of ^35 SO4 into glycosaminoglycan chains. To distinguish glycosaminoglycans produced on the glycoside from those made on endogenous proteoglycans, a Chinese hamster ovary cell mutant deficient in xylosyltransferase was made. […] [^35 S]glycosaminoglycan synthesis was measured by incubating mutant cells in a 96 well plate with glycoside derivatives at different doses. The cells and spent media were then transferred to a positively charged nylon membrane to detect newly made chains by autoradiography."}, "[2]": {"tested_on": "basic fibroblast growth factor", "settings": "background; cited from earlier work"}, "[3]": {"tested_on": "Chinese hamster ovary cells", "test": "Uptake of glycosides by Chinese hamster ovary cells, fluorescence assay", "method": "Confluent monolayers of Chinese hamster ovary cells were incubated with the indicated concentrations of Xylβ-0-2-naphthol at 37° C. for 30 minutes. The amount of glycoside taken up was determined by fluorescence assay.\nThe various glycosides were added (100 μM) to confluent Chinese hamster ovary cell monolayers and at the times indicated, the amount of glycoside taken up was quantitated by fluorescence assay. Filled circles: Xylβ-0-2-naphthol; filled square: Galβ-0-2-naphthol; unfilled triangle: Galβ1→4Xylβ-0-2-naphthol; filled triangle: Galβ1 →3Galβ0-2-naphthol.\nCompounds were dissolved in DMSO and added to growth medium such that the final concentration of vehicle was 0.5% (v/v). Confluent cells were incubated with supplemented growth medium at 37° C. for various times. The cultures were placed on ice, the medium was aspirated and the cells were washed three times with cold PBS containing 1 mg/ml of bovine serum albumin. Cells were solubilized in a small volume of 0.1M NaOH and the extracts were neutralized with one mole equivalent of acetic acid. After centrifuging the samples, the supernatants were applied to Sep-Pak Plus C18 cartridges (Waters Associates) and washed with water (10 ml) and 20% (v/v) methanol in water (5 ml). Bound material was eluted with 5 ml of 40% (v/v) methanol in water and concentrated to dryness. The residue was dissolved in methanol and its fluoresence was measured (SLM-Aminco Instruments). The excitation and emission wavelengths for 2-naphthol derivatives were 293 nm and 395 nm, respectively. Phenanthrol derivatives were excited at 310 nm and the emission was measured at 365 nm.\nAnimal cells take up β-D-xylosides and prime glycosaminoglycan chains with great efficiency. For priming to occur, the glycoside must pass though the plasma membrane and enter the Golgi where the glycosyltransferases reside. […] Xylβ-0-2-naphthol has three hydroxyl groups, whereas Gal-0-2-naphtholhas four."}, "[4]": {"tested_on": "F9 cells", "test": "Uptake of disaccharides by F9 cells, fluorescence assay", "format": "in vitro ADME, mouse", "settings": "Table I, control value without glycoside (1.0) subtracted"}, "[5]": {"tested_on": "sialyl Lewis X (sLe^x) ligands, HL-60 cells", "settings": "background; cited from earlier work"}, "[6]": {"tested_on": "O-linked glycoprotein synthesis", "settings": "background; cited from earlier work"}}, "note": "Entries after “also recorded” stand apart in the source; their conditions may differ."}
{"smiles": "O[C@@H]1[C@@H](O)[C@H](Oc2ccc3ccccc3c2)OC[C@H]1O", "note": "[Xylβ-0-2-naphthol]", "values": [{"measurement": "Priming of glycosaminoglycan chains (in words)", "setting": "[1]", "result": "primed chains efficiently"}, {"measurement": "Binding of primed heparan sulfate chains to basic fibroblast growth factor (in words)", "setting": "[2]", "result": "will bind to basic fibroblast growth factor"}, {"measurement": "Uptake (in words)", "setting": "[3]; CHO cells, 37° C., FIG. 1 and 2 (100 μM in FIG. 2)", "result": "diffuse more readily than hexosides; also recorded: occurs by diffusion; also recorded: depended on concentration and did not saturate"}, {"measurement": "Time for uptake to reach a plateau", "setting": "[3]; FIG. 2, 100 μM", "result": "less than one minute"}, {"measurement": "Uptake", "setting": "[3]; relative to Xylβ-0-2-naphthol 1.0 unit", "result": "1.0 unit of fluorescence"}, {"measurement": "Uptake", "setting": "[4]", "result": 9.0, "unit": "Arbitray units"}]}
{"smiles": "CC(=O)NC1C(OCc2ccccc2)OC(CO)C(O)C1O", "note": "(centres unmarked) [GalNAcα-0-Bn, GalNAc-O-benzyl]", "values": [{"measurement": "Expression of sLe^x ligands and adhesion to activated endothelial cells (in words)", "setting": "[5]", "result": "inhibits the expression of sialyl Lewis X (sLe^x) ligands and adhesion to activated endothelial cells"}, {"measurement": "Effect on mucin oligosaccharide / O-linked glycoprotein synthesis (in words)", "setting": "[6]", "result": "stimulates mucin oligosaccharide synthesis and inhibits O-linked glycoprotein synthesis"}]}
